Reference: PMC3391087 (The Journal of Biological Chemistry, 2012)

Target: T1, aPIIQGAP1 (C-terminal aPI binding domain of IQGAP1) (Homo sapiens, UniProt P46940)
T1 sequence (P46940 1551-1657): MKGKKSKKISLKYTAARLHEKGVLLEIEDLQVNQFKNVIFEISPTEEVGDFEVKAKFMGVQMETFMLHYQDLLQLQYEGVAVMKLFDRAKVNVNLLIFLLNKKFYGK
Assay: TR-FRET competition
Details: displacement of biotinylated PtdInsP3 (2.5 pmol); 50 nM GST fusion

PtdInsP3
IC50: ~500 nM
